The values that follow come from patent US8106055B2, “Substituted amide compounds” (Gruenenthal GmbH, priority 2007, dated 2012).

SMILES strings stand for the structures.

Experiment [1] addresses T1, human bradykinin 1 receptor (B1R) (Homo sapiens, UniProt P46663).
T1 construct: expressed in transfected cells; host or cells: CHO K1 cells
T1 sequence (P46663 1-353): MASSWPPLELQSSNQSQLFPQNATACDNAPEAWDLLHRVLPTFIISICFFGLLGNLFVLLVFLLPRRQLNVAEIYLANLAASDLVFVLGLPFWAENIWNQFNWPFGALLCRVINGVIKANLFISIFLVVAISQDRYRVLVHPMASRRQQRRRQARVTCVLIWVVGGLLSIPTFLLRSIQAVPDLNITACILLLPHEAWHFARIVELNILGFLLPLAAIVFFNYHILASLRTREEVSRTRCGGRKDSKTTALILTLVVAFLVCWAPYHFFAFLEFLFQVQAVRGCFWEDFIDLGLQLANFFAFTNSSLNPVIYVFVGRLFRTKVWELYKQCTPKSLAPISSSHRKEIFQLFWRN
The experiment can be described thus: Functional investigation on the human bradykinin 1 receptor (B1R), Ca2+ FLIPR assay in CHO K1 hB1R cells. Type of experiment: cell-based. Conditions: CHO-K1, B1R antagonism human; test substance 10 μM; Ca2+ FLIPR, CHO K1 hB1R cells; read-out: B1R Ant. h [10 μM] % Inhibition. In a few lines:
(§1)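 Cells were dye-loaded with Fluo-4 plus probenecid, then test substances added and Ca2+ influx compared with agonist control for % activation. After 10-20 min, EC80 agonist (Lys-Des-Arg9-bradykinin human; Des-Arg9-bradykinin rat) was applied; suppression gave % inhibition and IC50 values.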

In experiment [2] the target is T2, bradykinin 1 receptor (B1R) of the rat (Rattus norvegicus, UniProt P97583).
T2 construct: expressed in transfected cells; host or cells: CHO K1 cells
T2 sequence (P97583 1-337): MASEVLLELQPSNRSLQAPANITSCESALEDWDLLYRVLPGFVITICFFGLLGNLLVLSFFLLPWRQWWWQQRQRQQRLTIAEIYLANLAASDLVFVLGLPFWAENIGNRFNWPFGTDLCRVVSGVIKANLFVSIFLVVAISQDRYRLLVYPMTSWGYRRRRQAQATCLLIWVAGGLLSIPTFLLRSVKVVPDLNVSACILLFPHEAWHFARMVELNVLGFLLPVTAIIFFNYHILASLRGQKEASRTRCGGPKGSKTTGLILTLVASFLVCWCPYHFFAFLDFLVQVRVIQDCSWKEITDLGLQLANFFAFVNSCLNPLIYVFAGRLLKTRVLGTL
The experiment can be described thus: Functional investigation on the rat bradykinin 1 receptor (B1R), Ca2+ FLIPR assay in CHO K1 rB1R cells. The class given is cell-based. Conditions: CHO-K1, B1R antagonism rat; test substance 10 μM; Ca2+ FLIPR, CHO K1 rB1R cells; read-out: B1R Ant. r [10 μM] % Inhibition. In short, it runs like this:
as §1

Turning to `COc1ccc(S(=O)(=O)N2CCCCC2COCC(=O)NCC2CCC(C(c3cccc(F)c3)N(C)C)CC2)cc1` (stereo not drawn) [Example 179, N-((4-((dimethylamino)(3-fluorophenyl)methyl)cyclohexyl)methyl)-2-((1-(4-methoxyphenylsulfonyl)piperidin-2-yl)methoxy)acetamide], the inhibition at 10 µM came out at 65% in experiment [1] and 67% in experiment [2].
As for `COc1cc(C)c(S(=O)(=O)N2CCN(CCOCC(=O)NCCC3CCC(C(c4cccc(F)c4)N(C)C)CC3)CC2)c(C)c1C` (stereo not drawn) [Example 200, N-(2-(4-((dimethylamino)(3-fluorophenyl)methyl)cyclohexyl)ethyl)-2-(2-(4-(4-methoxy-2,3,6-trimethylphenylsulfonyl)piperazin-1-yl)ethoxy)acetamide], the inhibition at 10 µM in experiment [1] was 73%; in experiment [2], -3%.
Consider `CCN(CCOCC(=O)NC1CCC(C(c2cccc(F)c2)N(C)C)CC1)S(=O)(=O)c1c(C)cc(OC)c(C)c1C` (stereo not drawn) [Example 176, N-(4-((dimethylamino)(3-fluorophenyl)methyl)cyclohexyl)-2-(2-(N-ethyl-4-methoxy-2,3,6-trimethylphenylsulfonamido)ethoxy)acetamide], for which the values for the inhibition at 10 µM in experiment [1] and in experiment [2] were 64% and 47%, respectively.
With `COc1ccc(S(=O)(=O)N2Cc3ccccc3CC2COCC(=O)NCC2CCC(C(c3cccc(F)c3)N(C)C)CC2)cc1` (stereo not drawn) [Example 163, N-((4-((dimethylamino)(3-fluorophenyl)methyl)cyclohexyl)methyl)-2-((2-(4-methoxyphenylsulfonyl)-1,2,3,4-tetrahydroisoquinolin-3-yl)methoxy)acetamide], the inhibition at 10 µM was 40% in experiment [1] and 36% in experiment [2].
With `COc1cc(C)c(S(=O)(=O)N2CCCC(OCC(=O)NCC3CCC(C(c4cccc(F)c4)N(C)C)CC3)C2)c(C)c1C` (stereo not drawn) [Example 145, N-((4-((dimethylamino)(3-fluorophenyl)methyl)cyclohexyl)methyl)-2-(1-(4-methoxy-2,3,6-trimethylphenylsulfonyl)piperidin-3-yloxy)acetamide], the figures for the inhibition at 10 µM in experiment [1] and in experiment [2] were 12% and 33%, respectively.
In the case of `CN(C)C(c1ccccc1)C1CCC(CNC(=O)COCC2CCCN2S(=O)(=O)c2ccc(Cl)c(Cl)c2)CC1` (stereo not drawn) [Example 18, 2-((1-(3,4-dichlorophenylsulfonyl)pyrrolidin-2-yl)methoxy)-N-((4-((dimethylamino)(phenyl)methyl)cyclohexyl)methyl)acetamide], the inhibition at 10 µM in experiment [1] is 62%; in experiment [2] it was 11%.
For the compound `Cc1ccc(S(=O)(=O)N2CCC(OCC(=O)NC3CCC(C(c4cccs4)N(C)C)CC3)C2)cc1` (stereo not drawn) [Example 156, N-(4-((dimethylamino)(thiophen-2-yl)methyl)cyclohexyl)-2-(1-tosylpyrrolidin-3-yloxy)acetamide], the inhibition at 10 µM came to 5% in experiment [1] and 20% in experiment [2].
Turning to `COc1ccc(S(=O)(=O)N2Cc3ccccc3CC2COCC(=O)NCC2CCC(C(c3ccccc3)N(C)C)CC2)cc1` (stereo not drawn) [Example 19, N-((4-((dimethylamino)(phenyl)methyl)cyclohexyl)methyl)-2-((2-(4-methoxyphenylsulfonyl)-1,2,3,4-tetrahydroisoquinolin-3-yl)methoxy)acetamide], the inhibition at 10 µM in experiment [1] was found to be 63%; in experiment [2] it was 4%.
Take `COc1cc(C)c(S(=O)(=O)N2CCC(OCC(=O)NC3CCC(C(c4cccc(F)c4)N(C)C)CC3)C2)c(C)c1C` (stereo not drawn) [Example 189, N-(4-((dimethylamino)(3-fluorophenyl)methyl)cyclohexyl)-2-(1-(4-methoxy-2,3,6-trimethylphenylsulfonyl)pyrrolidin-3-yloxy)acetamide]: the values for the inhibition at 10 µM in experiment [1] and in experiment [2] were 47% and 16%, respectively.
For `Cc1ccc(S(=O)(=O)N(C)CCOCC(=O)NCC2CCC(C(c3ccccc3)N(C)C)CC2)cc1` (stereo not drawn) [Example 157, N-((4-((dimethylamino) (phenyl)methyl)cyclohexyl)methyl)-2-(2-(N,4-dimethylphenylsulfonamido)ethoxy)acetamide], the inhibition at 10 µM is 5% in experiment [1] and -1% in experiment [2].
With `CN(C)C(c1cccs1)C1CCC(CNC(=O)COC2CCCCC2N(C)S(=O)(=O)c2ccc(Cl)c(Cl)c2)CC1` (stereo not drawn) [Example 31, 2-(2-(3,4-dichloro-N-methylphenylsulfonamido)cyclohexyloxy)-N-((4-((dimethylamino)(thiophen-2-yl)methyl)cyclohexyl)methyl)acetamide], the inhibition at 10 µM in experiment [1] came to 10%; in experiment [2] it was 11%.
For `COc1ccc(S(=O)(=O)N2CCCCC2COCC(=O)NCCC2CCC(C(c3cccs3)N(C)C)CC2)cc1` (stereo not drawn) [Example 30, N-(2-(4-((dimethylamino)(thiophen-2-yl)methyl)cyclohexyl)ethyl)-2-((1-(4-methoxyphenylsulfonyl)piperidin-2-yl)methoxy)acetamide], the inhibition at 10 µM in experiment [1] stood at 81%; in experiment [2], 72%.
The corresponding values for `COc1cc(C)c(S(=O)(=O)N(CCOCC(=O)NC2CCC(C(c3ccccc3)N(C)C)CC2)Cc2ccccc2)c(C)c1C` (stereo not drawn) [Example 193, 2-(2-(N-benzyl-4-methoxy-2,3,6-trimethylphenylsulfonamido)ethoxy)-N-(4-((dimethylamino) (phenyl)methyl)cyclohexyl)acetamide] are 97% and 6%.
Consider `COc1cc(C)c(S(=O)(=O)N(CCOCC(=O)NCCC2CCC(C(c3cccs3)N(C)C)CC2)Cc2ccccc2)c(C)c1` (stereo not drawn) [Example 149, 2-(2-(N-benzyl-4-methoxy-2,6-dimethylphenylsulfonamido)ethoxy)-N-(2-(4-((dimethylamino) (thiophen-2-yl)methyl)cyclohexyl)ethyl)acetamide], for which the figures for the inhibition at 10 µM in experiment [1] and in experiment [2] were 72% and 10%, respectively.
Consider `Cc1ccc(S(=O)(=O)N2CCC(OCC(=O)NC3CCC(C(c4cccc(F)c4)N(C)C)CC3)C2)cc1` (stereo not drawn) [Example 167, N-(4-((dimethylamino)(3-fluorophenyl)methyl)cyclohexyl)-2-(1-tosylpyrrolidin-3-yloxy)acetamide], for which the inhibition at 10 µM in experiment [1] is -12%; in experiment [2] it was 40%.
With `CN(C)C(c1cccs1)C1CCC(NC(=O)COC2CCN(S(=O)(=O)c3ccccc3)C2)CC1` (stereo not drawn) [Example 194, N-(4-((dimethylamino)(thiophen-2-yl)methyl)cyclohexyl)-2-(1-(phenylsulfonyl)pyrrolidin-3-yloxy)acetamide], the values for the inhibition at 10 µM in experiment [1] and in experiment [2] were -17% and 14%, respectively.
The corresponding values for `CN(C)C(c1cccc(F)c1)C1CCC(NC(=O)COC2CCN(S(=O)(=O)c3cccc(C(F)(F)F)c3)C2)CC1` (stereo not drawn) [Example 139, N-(4-((dimethylamino)(3-fluorophenyl)methyl)cyclohexyl)-2-(1-(3-(trifluoromethyl)phenylsulfonyl)pyrrolidin-3-yloxy)acetamide] are -5% and 21%.
For the compound `COc1cc(C)c(S(=O)(=O)N(CCOCC(=O)NCC2CCC(C(c3ccccc3)N(C)C)CC2)Cc2ccccc2)c(C)c1` (stereo not drawn) [Example 148, 2-(2-(N-benzyl-4-methoxy-2,6-dimethylphenylsulfonamido)ethoxy)-N-((4-((dimethylamino)(phenyl)methyl)cyclohexyl)methyl)acetamide], the inhibition at 10 µM in experiment [1] was determined as 92%; in experiment [2], 46%.
On to `CN(C)C(c1cccc(F)c1)C1CCC(NC(=O)COCCN(C)S(=O)(=O)c2ccc(Cl)cc2)CC1` (stereo not drawn) [Example 196, 2-(2-(4-chloro-N-methylphenylsulfonamido)ethoxy)-N-(4-((dimethylamino)(3-fluorophenyl)methyl)cyclohexyl)acetamide], for which the results for the inhibition at 10 µM in experiment [1] and in experiment [2] were 6% and 27%, respectively.
With `COc1cc(C)c(S(=O)(=O)N2CCC(OCC(=O)NC3CCC(C(c4ccccc4)N(C)C)CC3)C2)c(C)c1` (stereo not drawn) [Example 165, N-(4-((dimethylamino)(phenyl)methyl)cyclohexyl)-2-(1-(4-methoxy-2,6-dimethylphenylsulfonyl)pyrrolidin-3-yloxy)acetamide], the inhibition at 10 µM was determined as 98% in experiment [1] and 38% in experiment [2].
Take `CN(C)C(c1ccccc1)C1CCC(NC(=O)COCCN(C)S(=O)(=O)c2c(F)c(F)c(F)c(F)c2F)CC1` (stereo not drawn) [Example 136, N-(4-((dimethylamino)(phenyl)methyl)cyclohexyl)-2-(2-(2,3,4,5,6-pentafluoro-N-methylphenylsulfonamido)ethoxy)acetamide]: the inhibition at 10 µM in experiment [1] is 87%; in experiment [2] it was -2%.
